Laboratory results from patent US6387849B1, “Herbicidal hydroximic acid derivatives” (BASF Aktiengesellschaft, priority 1997, dated 2002).

CO/N=C(\OC)c1cc(-n2c(=O)cc(C(F)(F)F)n(C)c2=O)c(F)cc1Cl [Compound 4.01, 3-[2-fluoro-4-chloro-5-methoxyimino-(methoxy)methylphenyl]-2,4-dioxo-1-methyl-6-trifluoromethyl-1,2,3,4-tetrahydropyrimidine]
melting point: 122 to 124 °C
